As usually defined, the IC50 is the concentration that inhibits the measured activity by half. A higher IC50 goes with weaker potency in that assay. In general, pIC50 refers to −log10 of the IC50, conventionally taken in molar units. Read a high pIC50 as a small IC50.

In patent publication US20020013314A1, “3,4-dihydro-2H-benzo[1,4]oxazine inhibitors of factor Xa” (priority 2000, published 2002) one finds IC50 data, which are given here for 14 compounds.

pIC50: −log10 of the molar value.

One assay concerns the target prothrombinase complex (Homo sapiens, UniProt P00742). As to the kind of experiment: prothrombinase inhibition assay (plasma free system, Chromozym TH). The class given is biochemical. On the procedure:
The prothrombinase inhibition assay is performed in a plasma free system with modifications to the method described by Sinha, U. et al., Thromb. […] Specifically, the activity of the prothrombinase complex is determined by measuring the time course of thrombin generation using the p-nitroanilide substrate Chromozym TH. […] Aliquots from the complex-inhibitor mixture are added to prothrombin (1 nM) and Chromozym TH (0.1 mM). […] Eight different concentrations of inhibitor are assayed in duplicate. A standard curve of thrombin generation by an equivalent amount of untreated complex is used for determination of percent inhibition.

The target of a further assay is thrombin (Homo sapiens, UniProt P00734). Kind of assay: thrombin amidolytic assay (Chromozym TH).
Another assay concerns the target factor Xa (Homo sapiens, UniProt P00742). Kind of assay: factor Xa amidolytic assay (chromogenic substrate S-2765).
[1] abbreviates: Table 3, probe of regiochemistry.

factor Xa, sequence (P00742 41-179 limits assumed): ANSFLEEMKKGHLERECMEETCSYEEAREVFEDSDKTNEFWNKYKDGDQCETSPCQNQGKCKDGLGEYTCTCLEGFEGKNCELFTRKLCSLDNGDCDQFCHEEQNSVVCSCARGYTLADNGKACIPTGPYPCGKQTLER
factor Xa, sequence (P00742 235-488 limits assumed): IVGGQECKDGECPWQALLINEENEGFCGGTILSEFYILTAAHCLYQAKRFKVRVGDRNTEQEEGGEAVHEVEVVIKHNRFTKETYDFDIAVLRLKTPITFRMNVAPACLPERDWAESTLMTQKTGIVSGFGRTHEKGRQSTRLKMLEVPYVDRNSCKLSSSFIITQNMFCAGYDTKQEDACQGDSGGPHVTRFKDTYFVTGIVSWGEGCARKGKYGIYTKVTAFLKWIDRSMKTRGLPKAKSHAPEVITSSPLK
prothrombinase complex, sequence (P00742 41-179 limits assumed): as the sequence (P00742 41-179 limits assumed) above
prothrombinase complex, sequence (P00742 235-488 limits assumed): as the sequence (P00742 235-488 limits assumed) above
prothrombinase complex, sequence (P12259 29-737 partner limits assumed): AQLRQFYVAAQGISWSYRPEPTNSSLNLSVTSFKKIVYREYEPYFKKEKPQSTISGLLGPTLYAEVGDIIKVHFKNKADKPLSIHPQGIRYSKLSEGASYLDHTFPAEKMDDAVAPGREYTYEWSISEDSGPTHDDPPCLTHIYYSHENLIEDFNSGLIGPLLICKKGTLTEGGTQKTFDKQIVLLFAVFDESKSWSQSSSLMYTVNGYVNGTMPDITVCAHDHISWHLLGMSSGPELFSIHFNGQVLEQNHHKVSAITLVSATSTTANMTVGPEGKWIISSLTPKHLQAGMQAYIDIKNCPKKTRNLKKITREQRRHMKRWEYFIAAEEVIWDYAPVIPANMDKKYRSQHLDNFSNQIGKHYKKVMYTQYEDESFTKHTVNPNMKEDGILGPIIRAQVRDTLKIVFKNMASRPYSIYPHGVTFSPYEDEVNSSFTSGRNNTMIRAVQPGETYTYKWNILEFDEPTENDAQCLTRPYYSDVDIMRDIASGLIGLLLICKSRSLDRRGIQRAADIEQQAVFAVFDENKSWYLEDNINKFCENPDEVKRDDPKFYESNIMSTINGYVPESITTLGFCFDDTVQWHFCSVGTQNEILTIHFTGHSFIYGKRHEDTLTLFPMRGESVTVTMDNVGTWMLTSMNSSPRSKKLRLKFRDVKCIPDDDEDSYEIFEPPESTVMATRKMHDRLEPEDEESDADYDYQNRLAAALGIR
prothrombinase complex, sequence (P12259 1574-2224 partner limits assumed): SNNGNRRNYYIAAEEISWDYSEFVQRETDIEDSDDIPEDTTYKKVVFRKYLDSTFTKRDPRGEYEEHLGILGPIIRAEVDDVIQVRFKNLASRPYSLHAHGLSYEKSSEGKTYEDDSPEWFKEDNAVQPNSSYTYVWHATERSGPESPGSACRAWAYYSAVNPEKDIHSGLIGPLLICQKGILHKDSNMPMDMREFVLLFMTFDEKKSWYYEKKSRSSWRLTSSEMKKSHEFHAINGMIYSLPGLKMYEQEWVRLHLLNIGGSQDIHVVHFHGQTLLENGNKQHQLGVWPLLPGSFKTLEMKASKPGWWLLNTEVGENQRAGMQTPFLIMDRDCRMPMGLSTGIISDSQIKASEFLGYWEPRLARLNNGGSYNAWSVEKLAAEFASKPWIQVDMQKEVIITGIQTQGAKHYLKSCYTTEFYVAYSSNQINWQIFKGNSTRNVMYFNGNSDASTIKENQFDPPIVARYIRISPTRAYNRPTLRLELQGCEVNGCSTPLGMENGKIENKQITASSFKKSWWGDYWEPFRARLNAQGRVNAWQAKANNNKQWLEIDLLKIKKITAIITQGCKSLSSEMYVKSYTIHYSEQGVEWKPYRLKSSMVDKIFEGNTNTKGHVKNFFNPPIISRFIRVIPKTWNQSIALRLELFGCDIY
Procedure for factor Xa: In the assays for thrombin, prothrombinase and factor Xa, a synthetic chromogenic substrate is added to a solution containing test compound and the enzyme of interest and the residual catalytic activity of that enzyme is determined spectrophotometrically. The IC50 of a compound is determined from the substrate turnover. […] The factor Xa and thrombin assays are performed at room temperature, in 0.02 M Tris·HCl buffer, pH 7.5, containing 0.15 M NaCl.

For `CC(=N)N1CCC(Oc2ccc3c(c2)OCC(=O)N3Cc2cccc(-c3cccc(C(=N)N)c3)c2)CC1` [Cmpd 23], half-maximal inhibition against prothrombinase complex (setting [1]) (IC50) was put at 214 nM. Moreover, the pIC50 was 4.96 at thrombin and 7.42 at factor Xa.

In turn, `CC(=N)N1CCC(Oc2ccc3c(c2)OCC(=O)N3Cc2ccc3ccc(C(=N)N)cc3c2)CC1` [Cmpd 24] gave a pIC50 against thrombin of 3.48.

In turn, `CC(=N)N1CCC(Oc2ccc3c(c2)N(Cc2cccc(-c4cccc(C(=N)N)c4)c2)C(=O)CO3)CC1` [Cmpd 25] registered a half-inhibitory concentration (IC50) against prothrombinase complex (setting [1]) of 934 nM. Further, the pIC50 is 5.27 on thrombin and 6.46 against factor Xa.

As to `CC(=N)N1CCC(Oc2ccc3c(c2)N(Cc2ccc4ccc(C(=N)N)cc4c2)C(=O)CO3)CC1` [Cmpd 26], the IC50 on prothrombinase complex (setting [1]) came to 352 nM. Besides, the pIC50 was 4.09 on thrombin and 6.72 on factor Xa.

`CC(=N)N1CCC(Oc2ccc3c(c2)OCC(=O)N3Cc2cc(-c3cccc(C(=N)N)c3)no2)CC1` [Cmpd 27] returned an IC50 on prothrombinase complex (Table 4) of 159 nM. Besides, the negative-log IC50 (pIC50) against thrombin was 3.60; against factor Xa, 7.28.

With `CC(=N)N1CCC(Oc2ccc3c(c2)OCC(=O)N3Cc2cc3ccc(C(=N)N)cc3n2C)CC1` [Cmpd 28], the half-inhibitory concentration (IC50) against prothrombinase complex (Table 4) amounted to 6.6 nM. The same compound showed a pIC50 on factor Xa of 8.70.

For the compound `N=C(N)c1ccc(C(=O)Nc2ccc3c(c2)OCC(=O)N3Cc2ccc3ccc(C(=N)N)cc3c2)cc1` [Cmpd 31], on prothrombinase complex (Table 5), the IC50 amounted to 67500 nM. Also, the figures for the pIC50 against thrombin and at factor Xa were 3.69 and 5.00, respectively.

Compound `N=C(N)c1ccc2ccc(CN3C(=O)COc4cc(NS(=O)(=O)c5ccccc5)ccc43)cc2c1` [Cmpd 32] yielded a half-maximal inhibitory concentration (IC50) on prothrombinase complex (Table 5) of 55200 nM. In addition, the negative logarithm of the IC50 (pIC50) was 4.46 against thrombin and 4.66 against factor Xa.

In the case of `COc1ccc(S(=O)(=O)Nc2ccc3c(c2)OCC(=O)N3Cc2ccc3ccc(C(=N)N)cc3c2)cc1` [Cmpd 33], the IC50 at prothrombinase complex (Table 5) was 81000 nM. In addition, the negative-log IC50 (pIC50) was 4.46 against thrombin and 4.42 at factor Xa.

As to `N=C(N)c1ccc2ccc(CN3C(=O)COc4cc(NS(=O)(=O)c5cccc6ncccc56)ccc43)cc2c1` [Cmpd 34], on prothrombinase complex (Table 5), the IC50 came to 364000 nM. Besides, the values for the negative logarithm of the IC50 (pIC50) on thrombin and on factor Xa were 3.96 and 4.71, respectively.

`N=C(N)c1ccc2ccc(CN3C(=O)COc4cc(NS(=O)(=O)c5ccc6cc(Br)ccc6c5)ccc43)cc2c1` [Cmpd 35] gave an IC50 at prothrombinase complex (Table 5) of 98000 nM. Also, the pIC50 at thrombin is 4.08; on factor Xa, 3.57.

At prothrombinase complex (Table 6, monoamidine), `N=C(N)c1ccc2ccc(CN3C(=O)COc4ccc(-c5ccccc5S(N)(=O)=O)cc43)cc2c1` [Cmpd 36] showed an IC50 of 2000 nM. In addition, the results for the negative logarithm of the IC50 (pIC50) at thrombin and against factor Xa were 4.57 and 7.17, respectively.

At prothrombinase complex (Table 6, monoamidine), `N=C(N)c1cccc(-c2cccc(CN3C(=O)COc4ccc(-c5ccccc5S(N)(=O)=O)cc43)c2)c1` [Cmpd 37] displayed an IC50 of 3000 nM. Also, the figures for the pIC50 against thrombin and on factor Xa were 5.06 and 6.05, respectively.

On prothrombinase complex (Table 6, monoamidine), `Cc1cc(CN2C(=O)COc3cc(-c4ccccc4S(N)(=O)=O)ccc32)n(-c2cccc(C(=N)N)c2)n1` [Cmpd 38] gave an IC50 greater than 11000 nM. Further, the negative-log IC50 (pIC50) on thrombin and at factor Xa was less than 4.96 throughout.
